# Test results taken from publication PMC8081377 (Mutagenesis, 2021).
# Counter-ions that a name gives are not always drawn. Like-named read-outs stand apart in the source and are kept apart here.
# Assays:
# [1] = system: EpiDerm™ EPI-200-MNA skin tissues
# [2] = system: EpiDerm™ EPI-200-MNA skin tissues; remark: listed apart in the source
# [3] = % VCC or % BN, lab(s) as stated in the text
# [4] = two treatments, vs solvent control
# [5] = three treatments, vs solvent control
# [6] = lack of excessive cytotoxicity, 48-h protocol
compound,measurement,setting,value
"COS(C)(=O)=O [Methyl methanesulfonate (MMS), Methyl methanesulfonate]",classification in the RSMN assay by Lab B,[1]; overall call,positive
same,"top/maximum dose tested, limited by excessive or strong cytotoxicity",[2]; [3],16 µg/cm^2
COc1cc2c(c(OC)c1OC)-c1ccc(OC)c(=O)cc1[C@@H](NC(C)=O)CC2 [Colchicine],classification in the RSMN assay by Lab A,[1]; overall call,positive
same,classification in the RSMN assay by Lab C,[1]; overall call,positive
same,"% MN-BN response in individual experiment(s), Lab A, 48-h protocol",[1]; [4],highly significant increases
same,"% MN-BN response in individual experiment(s), Lab C, 48-h protocol",[1]; [4],highly significant increases
same,"top/maximum dose tested, limited by excessive or strong cytotoxicity",[2]; [3],0.03 µg/cm^2
Oc1cccc2cccnc12 [8-Hydroxyquinoline],classification in the RSMN assay by Lab D,[1],negative
same,"top/maximum dose tested, limited by excessive or strong cytotoxicity",[2]; human,48 µg/cm^2
COC(=O)C1=C(C)NC(C)=C(C(=O)OC)C1c1ccccc1[N+](=O)[O-] [Nifedipine],classification in the RSMN assay by Lab A,[1]; overall call,negative
CCCCNC(=O)NS(=O)(=O)c1ccc(C)cc1 [Tolbutamide],classification in the RSMN assay by Lab A,[1]; early Phase 2a only,positive
same,classification in the RSMN assay by Lab A,"[1]; later Phase 2a testing only, expected outcome negative",correctly classified
same,classification in the RSMN assay by Lab B,[1]; overall call,negative
same,classification in the RSMN assay by Lab C,[1]; overall call,negative
same,"% MN-BN response in individual experiment(s), Lab C, 48-h protocol",[1]; [4],negative results
"Cc1c(N)cccc1N [2,6-Diaminotoluene (2,6-DAT), 2,6-Diaminotoluene]",classification in the RSMN assay by Lab D,[1],negative
same,"top/maximum dose tested, limited by excessive or strong cytotoxicity",[2]; [3],350 µg/cm^2
"Cc1cn([C@H]2C[C@H](N=[N+]=[N-])[C@@H](CO)O2)c(=O)[nH]c1=O [Azidothymidine (AZT), Azidothymidine]",classification in the RSMN assay by Lab A,[1]; overall call,positive
same,"% MN-BN response in individual experiment(s), Lab A, 72-h protocol",[1]; [5],significant increases
same,"% MN-BN response in individual experiment(s), Lab A, 48-h protocol",[1]; [4],significant increase
same,"top/maximum dose tested, limited by excessive or strong cytotoxicity",[2]; human,700 µg/cm^2
COc1cc(/C=C/C(=O)CC(=O)/C=C/c2ccc(O)c(OC)c2)ccc1O [Curcumin],classification in the RSMN assay by Lab B,[1]; overall call,positive
same,"top/maximum dose tested, limited by excessive or strong cytotoxicity",[2]; [3],160 µg/cm^2
O=[N+]([O-])c1cccc2ccccc12 [1-Nitronaphthalene],classification in the RSMN assay by Lab A,[1],negative
same,"top/maximum dose tested, limited by excessive or strong cytotoxicity",[2]; [3],50–80 µg/cm^2
C1CC2OC2CC1C1CO1 (stereo not shown) [4-Vinyl-1-cyclohexene diepoxide],classification in the RSMN assay by Lab A,[1]; overall call,positive
same,classification in the RSMN assay by Lab B,[1]; overall call,positive
same,classification in the RSMN assay by Lab C,[1]; overall call,positive
same,"% MN-BN response in individual experiment(s), Lab C, 72-h protocol",[1]; [5],equivocal response
same,"% MN-BN response in individual experiment(s), Lab B, 48-h protocol",[1]; [4],significant increase
same,"% MN-BN response in individual experiment(s), Lab C, 48-h protocol",[1]; [4],negative
same,"% MN-BN response in individual experiment(s), Lab D, 48-h protocol",[1]; [4],negative
same,"top/maximum dose tested, limited by excessive or strong cytotoxicity",[2]; [3],64 µg/cm^2
CCCOC(=O)c1cc(O)c(O)c(O)c1 [Propyl gallate],"% MN-BN response in individual experiment(s), Lab B, 48-h protocol",[1],did not significantly increase
same,classification in the RSMN assay by Lab B,[1],negative
same,"top/maximum dose tested, limited by excessive or strong cytotoxicity",[2]; [3],48 µg/cm^2
c1ccc2c(c1)ccc1ccccc12 [Phenanthrene],"% MN-BN response in individual experiment(s), Lab B, 48-h protocol",[1],negative
same,"% MN-BN response in individual experiment(s), Lab B, 72-h protocol",[1],no evidence for an increase
same,"% MN-BN response in individual experiment(s), Lab C, 48-h protocol",[1],negative
same,"% MN-BN response in individual experiment(s), Lab D, 48-h protocol",[1],negative
same,classification in the RSMN assay by Lab A,[1],positive
same,classification in the RSMN assay by Lab B,[1],negative
same,classification in the RSMN assay by Lab C,[1],negative
same,classification in the RSMN assay by Lab D,[1],negative
same,"top dose, limited by precipitation on the surface of the skin tissues",[2]; lab(s) as stated in the text,200–400 µg/cm^2
same,doses at which precipitation was seen,"[2]; second 48-h experiment, Lab A",≥ 400 µg/cm^2
Oc1cccc(O)c1 [Resorcinol],"% MN-BN response in individual experiment(s), Lab B, 48-h protocol",[1],significant increase in % MN-BN at the highest dose tested
same,"% MN-BN response in individual experiment(s), Lab B, 72-h protocol",[1],did not induce any statistically significant increase
same,classification in the RSMN assay by Lab B,[1],negative
CC1(C)S[C@@H]2[C@H](NC(=O)[C@H](N)c3ccccc3)C(=O)N2[C@H]1C(=O)O [Ampicillin sodium salt],classification in the RSMN assay by Lab A,[1]; overall call,negative
same,"% MN-BN response in individual experiment(s), Lab A, 48-h protocol",[1]; [4],no significant increases
same,maximum dose tested without exceeding the cytotoxicity thresholds,[2]; [6],1600 µg/cm^2
CCc1cc(C(N)=S)ccn1 [Ethionamide],"% MN-BN response in individual experiment(s), Lab A, 48-h protocol",[1],negative
same,"% MN-BN response in individual experiment(s), Lab B, 48-h protocol",[1],negative
same,"% MN-BN response in individual experiment(s), Lab B, 72-h protocol",[1],negative
same,"% MN-BN response in individual experiment(s), Lab C, 48-h protocol",[1],negative
same,classification in the RSMN assay by Lab A,[1],negative
same,classification in the RSMN assay by Lab B,[1],negative
same,classification in the RSMN assay by Lab C,[1],negative
same,% VCC or BN (cytotoxicity thresholds exceeded),[2]; human,< 40 % VCC or BN
same,"top/maximum dose tested, limited by excessive or strong cytotoxicity",[2]; human,30–160 µg/cm^2
OC[C@@H](O)[C@@H](O)[C@H](O)[C@H](O)CO [D-Mannitol],classification in the RSMN assay by Lab B,[1]; overall call,negative
same,classification in the RSMN assay by Lab D,[1]; overall call,negative
same,"% MN-BN response in individual experiment(s), Lab B, 48-h protocol",[1]; [4],no significant increase
same,"% MN-BN response in individual experiment(s), Lab D, 48-h protocol",[1]; [4],no significant increase
same,maximum dose tested without exceeding the cytotoxicity thresholds,[2]; [6],1600 µg/cm^2
O=C(O)Cc1ccccc1Nc1c(Cl)cccc1Cl [Diclofenac],classification in the RSMN assay by Lab A,[1]; overall call,positive
same,classification in the RSMN assay by Lab B,[1]; overall call,positive
same,classification in the RSMN assay by Lab D,[1]; overall call,positive
same,apoptotic cells alongside the increase of micronuclei,[1]; reported by Lab A,strong increase of apoptotic cells
same,"% MN-BN response in individual experiment(s), Lab A, 48-h protocol",[1]; [4],significant increases
same,"top/maximum dose tested, limited by excessive or strong cytotoxicity",[2]; [3],50–80 µg/cm^2
"Cc1ccc(N)cc1N [2,4-Diaminotoluene (2,4-DAT), 2,4-Diaminotoluene]",classification in the RSMN assay by Lab A,[1]; overall call,positive
same,classification in the RSMN assay by Lab B,[1]; overall call,negative
same,classification in the RSMN assay by Lab D,[1]; overall call,negative
same,"% MN-BN response in individual experiment(s), Lab B, 72-h protocol",[1]; [5],negative
same,"% MN-BN response in individual experiment(s), Lab B, 48-h protocol",[1]; [4],none of which caused a significant increase
same,"% MN-BN response in individual experiment(s), Lab D, 48-h protocol",[1]; [4],negative
same,"top/maximum dose tested, limited by excessive or strong cytotoxicity",[2]; [3],700 µg/cm^2
O=[N+]([O-])c1ccc(O)cc1 [4-Nitrophenol],classification in the RSMN assay by Lab A,[1]; overall call,negative
same,classification in the RSMN assay by Lab B,[1]; overall call,negative
same,classification in the RSMN assay by Lab C,[1]; overall call,negative
same,classification in the RSMN assay by Lab D,[1]; overall call,negative
same,"% MN-BN response in individual experiment(s), Lab A, 72-h protocol",[1]; [5],negative
same,"% MN-BN response in individual experiment(s), Lab C, 72-h protocol",[1]; [5],negative
same,"% MN-BN response in individual experiment(s), Lab A, 48-h protocol",[1]; [4],negative
same,"% MN-BN response in individual experiment(s), Lab B, 48-h protocol",[1]; [4],did not find any evidence for an increase
same,"% MN-BN response in individual experiment(s), Lab C, 48-h protocol",[1]; [4],negative
same,"% MN-BN response in individual experiment(s), Lab D, 48-h protocol",[1]; [4],did not find any evidence for an increase
same,"top/maximum dose tested, limited by excessive or strong cytotoxicity",[2]; [3],20–48 µg/cm^2
O=c1[nH]cc(F)c(=O)[nH]1 [5-Fluorouracil],"% MN-BN response in individual experiment(s), Lab B, 48-h protocol",[1],negative results
same,"% MN-BN response in individual experiment(s), Lab B, 72-h protocol",[1],negative results
same,classification in the RSMN assay by Lab A,[1],positive
same,classification in the RSMN assay by Lab B,[1],negative
O=C1CN(/N=C/c2ccc([N+](=O)[O-])o2)C(=O)N1 [Nitrofurantoin],classification in the RSMN assay by Lab B,[1],negative
same,maximum dose tested without exceeding the cytotoxicity thresholds,[2]; human,1600 µg/cm^2
same,"top/maximum dose tested, limited by excessive or strong cytotoxicity",[2]; human,48 µg/cm^2
"OCC(Br)CBr (stereo not shown) [2,3-Dibromo-1-propanol]",classification in the RSMN assay by Lab A,[1]; overall call,positive
same,"top/maximum dose tested, limited by excessive or strong cytotoxicity",[2]; [3],500–600 µg/cm^2
Oc1ccccc1 [Phenol],"% MN-BN response in individual experiment(s), Lab D, 48-h protocol",[1],significant increase in the % MN-BN was observed only at the highest dose tested
same,classification in the RSMN assay by Lab D,[1],negative
COc1cc([C@@H]2c3cc4c(cc3[C@@H](O[C@@H]3O[C@@H]5CO[C@@H](C)O[C@H]5[C@H](O)[C@H]3O)[C@H]3COC(=O)[C@H]23)OCO4)cc(OC)c1O [Etoposide],"top/maximum dose tested, limited by excessive or strong cytotoxicity",[2]; [3],1.6 µg/cm^2
CCC(=O)OCC(=O)[C@@]1(OC(=O)CC)[C@@H](C)C[C@H]2[C@@H]3CCC4=CC(=O)C=C[C@]4(C)[C@@]3(Cl)[C@@H](O)C[C@@]21C [Beclomethasone dipropionate],classification in the RSMN assay by Lab B,[1]; overall call,negative
same,"% MN-BN response in individual experiment(s), Lab B, 48-h protocol",[1]; [4],no significant increases
same,maximum dose tested without exceeding the cytotoxicity thresholds,[2]; [6],1600 µg/cm^2
"Oc1ccc(Cl)cc1Cl [2,4-Dichlorophenol]",classification in the RSMN assay by Lab A,[1]; overall call,negative
same,classification in the RSMN assay by Lab D,[1]; overall call,negative
same,"% MN-BN response in individual experiment(s), Lab A, 48-h protocol",[1]; [4],no statistically significant increases
same,"% MN-BN response in individual experiment(s), Lab D, 48-h protocol",[1]; [4],negative
same,"top/maximum dose tested, limited by excessive or strong cytotoxicity",[2]; [3],50 µg/cm^2
CCCCCl [N-Butyl chloride],"% MN-BN response in individual experiment(s), Lab A, 72-h protocol",[1],negative results
same,"% MN-BN response in individual experiment(s), Lab B, 48-h protocol",[1],no significant increases
same,"% MN-BN response in individual experiment(s), Lab C, 48-h protocol",[1],no significant increase
same,"% MN-BN response in individual experiment(s), Lab C, 72-h protocol",[1],no significant increase
same,"% MN-BN response in individual experiment(s), Lab D, 48-h protocol",[1],no significant increases
same,classification in the RSMN assay by Lab A,[1],negative
same,classification in the RSMN assay by Lab B,[1],negative
same,classification in the RSMN assay by Lab C,[1],negative
same,classification in the RSMN assay by Lab D,[1],negative
CC(=O)O[C@H]1C(=O)[C@@]2(C)[C@H]([C@H](OC(=O)c3ccccc3)[C@]3(O)C[C@H](OC(=O)[C@H](O)[C@@H](NC(=O)c4ccccc4)c4ccccc4)C(C)=C1C3(C)C)[C@]1(OC(C)=O)CO[C@@H]1C[C@@H]2O [Taxol],classification in the RSMN assay by Lab C,[1]; overall call,positive
same,"% MN-BN response in individual experiment(s), Lab C, 48-h protocol",[1]; [4],clear and dose-dependent increase
same,"top/maximum dose tested, limited by excessive or strong cytotoxicity",[2]; [3],1.6 µg/cm^2
"CCOS(C)(=O)=O [Ethyl methanesulfonate (EMS), Ethyl methanesulfonate]",classification in the RSMN assay by Lab A,[1]; overall call,positive
same,classification in the RSMN assay by Lab C,[1]; overall call,positive
same,"% MN-BN response in individual experiment(s), Lab A, 72-h protocol",[1]; [5],significant increase in the % MN-BN at multiple doses
same,"% MN-BN response in individual experiment(s), Lab C, 48-h protocol",[1]; [4],clear and dose-dependent increase
same,"top/maximum dose tested, limited by excessive or strong cytotoxicity",[2]; [3],360 µg/cm^2
